Earlier results on one compound are cited in US5525347A, “Composition and methods for treating performance anxiety” (Medical University of South Carolina, priority 1995, dated 1996).

One series concerns social phobia. Conditions: case reports; 10-120 mg.
Experiment in series [1]: not given
The source holds these as a separate data set.

Structures are written as SMILES. Counter-ions that a name gives are not always drawn.

As to `CC(C)NCC(O)COc1cccc2ccccc12` (stereo not shown) [Propranolol Hydrochloride, 1-(Isopropylamino)-3-(1-napthyloxy)-2-propanol hydrochloride], the stability to heat entry (heat) is on record as “stable to heat”. Besides, under “light”, the stability in light entry is listed as “unstable in light”. In the series on social phobia, the “efficacy in social phobia” value is on record as “suggest efficacy”. For the same compound, the “Solubility in chloroform” value in series [1] (chloroform) is “slightly soluble”. In series [1] (ether), the Solubility in ether entry is “practically insoluble”. For the same compound, the Solubility in alcohol in series [1] (volume of alcohol for 1 g) is 20 mL. For the same compound, the Solubility in water in series [1] (volume of water for 1 g) is 20 mL.
